Experimental data taken from patent publication US7928138B2, “Marine actinomycete taxon for drug and fermentation product discovery” (Regents of the University of California, priority 2000, dated 2011).
≈ marks a conversion by molar mass, not a printed value.

Tested on: HCT-116 human colon carcinoma cell line
Test: Cytotoxicity against human colon carcinoma cell line by MTS assay
Type: cell-based
Conditions: pure compound
Protocol: Assay for the inhibition of growth of colon carcinoma cells and of ovarian cancer cells in vitro. The cytotoxicity of extracts from cells or culture media were assessed in vitro against the human colon carcinoma cell line HCT116 and the human ovarian carcinoma cell line A2780 by MTS assay. Cells were plated at 4,000 cells per well in 96 well microliter plates and, after 24 hours, the extract (dissolved in DMSO or other appropriate solvent) was added and serially diluted. The cells were incubated with the compound at 37° C. for 72 hours, then the tetrazolium dye MTS was added to a final concentration of 333 μg/ml and the electron coupling agent phenazine methosulfate was added to a final concentration of 25 μM. Once reduced, MTS is converted into a […] blue crystal formazan and that was read at an absorbance at 490 nm with a microplate reader. As dead cells are unable to reduce MTS, the amount of formazan is correlated to the number of viable cells. The IC50, the drug concentration required to inhibit proliferation of 50% of the cells, was used as a measure of efficacy.

## C[C@@]12OC(=O)[C@]1([C@@H](O)[C@@H]1C=CCCC1)NC(=O)[C@@H]2CCCl [salinosporamide A]
  IC50 against the HCT-116 human colon carcinoma cell line: 0.01 µg/mL (≈ 0.0319 µM)
